Legend:
Test in all cases: relative viability (nuclei count vs DMSO), 5 days (fraction); higher = more cells survive
Seliciclib + Pemetrexed = compound: CC[C@H](CO)Nc1nc(NCc2ccccc2)c2ncn(C(C)C)c2n1 [Seliciclib] + Nc1nc2[nH]cc(CCc3ccc(C(=O)N[C@@H](CCC(=O)O)C(=O)O)cc3)c2c(=O)[nH]1 [Pemetrexed] (partner 0.2 µM)
Summary of the method: (§1)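 Each reported value is a median over duplicate plates. It expresses relative viability: treated-well nuclei count divided by vehicle-well nuclei count. Lung cancer cell lines in 1536-well plates were dosed by pin tool a day after seeding, alone with one drug or with a fixed anchor-drug dose plus five library-drug doses (not always all listed) in √10 steps, and nuclei were counted after 5 days.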

Seliciclib + Olaparib = compound: CC[C@H](CO)Nc1nc(NCc2ccccc2)c2ncn(C(C)C)c2n1 [Seliciclib] + O=C(c1cc(Cc2n[nH]c(=O)c3ccccc23)ccc1F)N1CCN(C(=O)C2CC2)CC1 [Olaparib] (partner 8 µM)
Summary of the method: as §1

Seliciclib + Alpelisib = compound: CC[C@H](CO)Nc1nc(NCc2ccccc2)c2ncn(C(C)C)c2n1 [Seliciclib] + Cc1nc(NC(=O)N2CCC[C@H]2C(N)=O)sc1-c1ccnc(C(C)(C)C(F)(F)F)c1 [Alpelisib] (partner 2 µM)
Summary of the method: as §1

Seliciclib + Palbociclib = compound: CC[C@H](CO)Nc1nc(NCc2ccccc2)c2ncn(C(C)C)c2n1 [Seliciclib] + CC(=O)c1c(C)c2cnc(Nc3ccc(N4CCNCC4)cn3)nc2n(C2CCCC2)c1=O [Palbociclib] (partner 0.5 µM)
Summary of the method: as §1

Row | Cell Line | relative viability (Seliciclib + Pemetrexed; first compound 0.08 µM) | relative viability (Seliciclib + Pemetrexed; first compound 0.253 µM) | relative viability (Seliciclib + Pemetrexed; first compound 0.8 µM) | relative viability (Seliciclib + Pemetrexed; first compound 2.53 µM) | relative viability (Seliciclib + Pemetrexed; first compound 8 µM) | relative viability (Seliciclib + Olaparib; first compound 0.08 µM) | relative viability (Seliciclib + Olaparib; first compound 0.253 µM) | relative viability (Seliciclib + Olaparib; first compound 0.8 µM) | relative viability (Seliciclib + Olaparib; first compound 2.53 µM) | relative viability (Seliciclib + Olaparib; first compound 8 µM) | relative viability (Seliciclib + Alpelisib; first compound 0.08 µM) | relative viability (Seliciclib + Alpelisib; first compound 0.253 µM) | relative viability (Seliciclib + Alpelisib; first compound 0.8 µM) | relative viability (Seliciclib + Alpelisib; first compound 2.53 µM) | relative viability (Seliciclib + Alpelisib; first compound 8 µM) | relative viability (Seliciclib + Palbociclib; first compound 0.08 µM) | relative viability (Seliciclib + Palbociclib; first compound 0.253 µM) | relative viability (Seliciclib + Palbociclib; first compound 0.8 µM) | relative viability (Seliciclib + Palbociclib; first compound 2.53 µM) | relative viability (Seliciclib + Palbociclib; first compound 8 µM)
1 | NCI-H3122 | 0.207 | 0.211 | 0.177 | 0.205 | 0.228 | 0.632 | 0.589 | 0.62 | 0.697 | 0.615 | 0.762 | 0.763 | 0.753 | 0.765 | 0.777 | 0.179 | 0.135 | 0.172 | 0.172 | 0.182
2 | PC-3 [JPC-3] | 1.11 | 1.17 | 1.08 | 0.995 | 0.968 | 1.05 | 1.25 | 1.06 | 1.1 | 0.978 | 1.02 | 1.07 | 0.968 | 0.997 | 0.904 | 0.477 | 0.615 | 0.543 | 0.498 | 0.476
3 | PC-14 | 0.125 | 0.147 | 0.166 | 0.143 | 0.122 | 0.286 | 0.285 | 0.29 | 0.343 | 0.266 | 0.86 | 0.871 | 0.878 | 0.909 | 0.854 | 0.444 | 0.65 | 0.517 | 0.391 | 0.275
4 | RERF-LC-KJ | 0.474 | 0.54 | 0.488 | 0.471 | 0.441 | 0.963 | 0.883 | 0.937 | 0.823 | 0.708 | 0.745 | 0.761 | 0.814 | 0.973 | 0.792 | 1 | 0.925 | 1.03 | 1.07 | 0.908
5 | SK-LU-1 | 0.992 | 1.08 | 1.04 | 0.952 | 0.597 | 0.411 | 0.543 | 0.478 | 0.404 | 0.34 | 1 | 1.05 | 1.04 | 0.795 | 0.636 | 0.408 | 0.389 | 0.403 | 0.346 | 0.313
6 | SK-MES-1 | 1 | 1.17 | 0.932 | 0.862 | 0.708 | 0.764 | 0.726 | 0.647 | 0.564 | 0.342 | 0.811 | 0.85 | 0.846 | 0.873 | 0.948 | 0.329 | 0.336 | 0.314 | 0.259 | 0.277
7 | SW 1573 | 0.875 | 0.723 | 0.886 | 0.791 | 0.731 | 0.473 | 0.487 | 0.527 | 0.471 | 0.425 | 0.653 | 0.805 | 0.786 | 0.712 | 0.567 | 0.332 | 0.315 | 0.368 | 0.361 | 0.292
8 | UMC-11 | 0.741 | 0.753 | 0.789 | 0.78 | 0.594 | 0.367 | 0.388 | 0.381 | 0.352 | 0.293 | 0.856 | 0.896 | 0.995 | 1.24 | 0.823 | 0.317 | 0.27 | 0.325 | 0.312 | 0.303
